Laboratory results published in patent US6946427B2, “Preservative blends containing iodine containing compounds” (Lonza Inc., priority 2001, dated 2005).
Like-named read-outs stand apart in the source and are kept apart here.

System: S. aureus, P. aeruginosa, and E. coli
Experiment: Preservative challenge test in anionic protein shampoo inoculated with mixed bacteria; plate counts and Kull synergism value
Format: cell-based

SMILES | S. aureus, P. aeruginosa, and E. coli (cfu/g) Day 0 (anionic protein shampoo, single preservative, printed ">0.5%" by weight, Day 0) | S. aureus, P. aeruginosa, and E. coli (cfu/g) Day 14 (anionic protein shampoo, single preservative, printed ">0.5%" by weight, Day 14) | Qc, concentration of sodium dehydroacetate monohydrate alone required to yield 100% retardation of the bacteria (percent by weight, plate count <10 cfu/g after 14 days) [%] | Qa, concentration of sodium salicylate alone required to yield 100% retardation of the bacteria [%] | S. aureus, P. aeruginosa, and E. coli (cfu/g) Day 0 | S. aureus, P. aeruginosa, and E. coli (cfu/g) Day 14
CC(=O)c1c([O-])cc(C)oc1=O.O.[Na+] [Sodium Dehydroacetate Monohydrate, sodium dehydroacetate monohydrate] | 3.0 × 10^6 cfu/g | 4.0 × 10^3 cfu/g | >0.50 |  |  | 
O=C([O-])c1ccccc1O.[Na+] [Sodium Salicylate, sodium salicylate] |  |  |  | >1.00 | 3.0 × 10^6 cfu/g | 5.0 × 10^2 cfu/g
